Data published in ChEMBL document CHEMBL1201862, “PubChem BioAssay data set” (2004).
The source made the active and inactive calls.

Legend:
[1] = biological target: DNA damage-inducible transcript 3 protein (Mus musculus, UniProt P35639); assay type: functional, Cricetulus griseus
X-box-binding protein 1 = biological target: T1, X-box-binding protein 1 (Homo sapiens, UniProt P17861); assay type: functional, Cricetulus griseus;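 also: confirmatory dose-response counter-screen serving a CHOP assay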
T1 sequence (P17861 whole entry): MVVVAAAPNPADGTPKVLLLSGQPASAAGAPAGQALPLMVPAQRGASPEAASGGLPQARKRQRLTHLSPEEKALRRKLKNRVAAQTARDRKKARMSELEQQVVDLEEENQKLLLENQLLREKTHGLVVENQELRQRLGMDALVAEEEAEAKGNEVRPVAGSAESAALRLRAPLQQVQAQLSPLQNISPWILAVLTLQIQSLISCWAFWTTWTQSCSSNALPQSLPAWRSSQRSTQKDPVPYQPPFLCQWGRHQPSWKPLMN

Ion channel NompC = Ion channel NompC (Danio rerio, UniProt Q7T1G6); experiment: Dose response cell-based high-throughput screening assay for agonists of the transient receptor potential channel N1 (TRPN1). [Related pubchem assays (depositor defined):AID1424, AID1448]; assay type: functional
Mucolipin-3 = Mucolipin-3 (Homo sapiens, UniProt Q8TDD5); experiment: Fluorescence counterscreen assay for […] agonists: dose response cell-based high-throughput screening assay to identify agonists of the transient receptor potential channel ML3 (TRPML3). [Related pubchem assays: 1424, 1448 ]; assay type: functional
[2] = biological target: T2, G-protein coupled receptor 35 (Homo sapiens, UniProt Q9HC97); experiment: SAR analysis of Agonists of the GPR35 Receptor using an Image-Based Assay - Set 4. [Related pubchem assays (depositor defined):AID2013, AID2026]; assay type: functional
Cannabinoid receptor 1 [3] = biological target: T3, Cannabinoid receptor 1 (Homo sapiens, UniProt P21554); experiment: SAR analysis of agonists of the Cannabinoid Receptor 1 using an Image-Based Assay - Set 4. [Related pubchem assays (depositor defined):AID2013, AID2026]; assay type: functional
[4] = biological target: T2, G-protein coupled receptor 35; experiment: SAR analysis of Antagonists of the GPR35 Receptor using an Image-Based Assay - Set 6. [Related pubchem assays (depositor defined):AID2013, AID2026]; assay type: functional
Cannabinoid receptor 1 [5] = biological target: T3, Cannabinoid receptor 1; experiment: SAR analysis of antagonists of the Cannabinoid Receptor 1 using an Image-Based Assay - Set 4. [Related pubchem assays (depositor defined):AID2013, AID2026]; assay type: functional
[6] = biological target: T4, G-protein coupled receptor 55 (Homo sapiens, UniProt Q9Y2T6); experiment: SAR Analysis of Selective Antagonists of GPR55 using an Image-Based Assay - Set 4. [Related pubchem assays (depositor defined):AID2013, AID2026]; assay type: functional
Cannabinoid receptor 2 [7] = biological target: T5, Cannabinoid receptor 2 (Homo sapiens, UniProt P34972); experiment: SAR analysis of antagonists of the Cannabinoid Receptor 2 using an Image-Based Assay - Set 3. [Related pubchem assays (depositor defined):AID2013, AID2026]; assay type: functional
Cannabinoid receptor 2 [8] = biological target: T5, Cannabinoid receptor 2; experiment: SAR analysis of agonists of the Cannabinoid Receptor 2 using an Image-Based Assay - Set 3. [Related pubchem assays (depositor defined):AID2013, AID2026]; assay type: functional
Cannabinoid receptor 2 [9] = biological target: T5, Cannabinoid receptor 2; experiment: SAR analysis of antagonists of the Cannabinoid Receptor 2 using an Image-Based Assay - Set 2. [Related pubchem assays (depositor defined):AID1961, AID1965]; assay type: functional
[10] = biological target: T4, G-protein coupled receptor 55; experiment: SAR analysis of selective Agonists of GPR55 using an Image-Based Assay - Set 2. [Related pubchem assays (depositor defined):AID1961, AID1965]; assay type: functional
Cannabinoid receptor 2 [11] = biological target: T5, Cannabinoid receptor 2; experiment: SAR analysis of agonists of the Cannabinoid Receptor 2 using an Image-Based Assay - Set 2. [Related pubchem assays (depositor defined):AID1961, AID1965]; assay type: functional
[12] = biological target: T2, G-protein coupled receptor 35; experiment: SAR analysis of Agonists of the GPR35 Receptor using an Image-Based Assay - Set 3. [Related pubchem assays (depositor defined):AID1961, AID1965]; assay type: functional
Cannabinoid receptor 1 [13] = biological target: T3, Cannabinoid receptor 1; experiment: SAR analysis of antagonists of the Cannabinoid Receptor 1 using an Image-Based Assay - Set 3. [Related pubchem assays (depositor defined):AID1961, AID1965]; assay type: functional
Cannabinoid receptor 1 [14] = biological target: T3, Cannabinoid receptor 1; experiment: SAR analysis of agonists of the Cannabinoid Receptor 1 using an Image-Based Assay - Set 3. [Related pubchem assays (depositor defined):AID1961, AID1965]; assay type: functional
[15] = biological target: T2, G-protein coupled receptor 35; experiment: SAR analysis of Antagonists of the GPR35 Receptor using an Image-Based Assay - Set 4. [Related pubchem assays (depositor defined):[…]]; assay type: functional
[16] = Luminescence Cell-Based Dose Response HTS to Identify Inhibitors of Luciferase Translation or Activity in H4-C Neuroglioblastoma Cells. [Related pubchem assays: 1813 (Primary HTS), 1827 (Project Summary)]; assay type: functional
[17] = Luminescence Cell-Based Dose Response HTS to Identify Activators of Luciferase Translation or Activity in H4-C Neuroglioblastoma Cells. [Related pubchem assays: 1829 (Project Summary), 1814 (Primary HTS)]; assay type: functional
[18] = luciferase reporter signal suppression in cells – H4 neuroglioma cells, luminescence, dose response (AID 1990); assay type: functional, cell-based
[19] = luciferase reporter signal reduction – luminescence, H4-C neuroglioblastoma cells, dose response (AID 2458); assay type: functional, cell-based;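 also: H4 neuroglioblastoma cells stably carrying a luciferase reporter gene fusion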
[20] = Luminescence Cell-Based Dose Retest to Confirm Activators of 5'UTR Stem-Loop Driven Alpha-Synuclein mRNA Translation in H4 Neuroglioblastoma Cells. [Related pubchem assays (depositor defined):AID1813, AID1829]; assay type: functional
[21] = Luminescence Cell-Based Dose Response HTS to Identify Activators of 5'UTR Stem-Loop Driven Prion Protein mRNA Translation in H4-C Neuroglioblastoma Cells. [Related pubchem assays: 1829 (Project Summary), 1814 (Primary HTS)]; assay type: functional
[22] = Luminescence Cell-Based Dose HTS Response to Identify Inhibitors of 5'UTR Stem-Loop Driven Prion Protein mRNA Translation in H4-C Neuroglioblastoma Cells. [Related pubchem assays (depositor defined):AID1814, AID1827]; assay type: functional
BJ [23] = experiment: BJ-TERT fibroblast viability loss – cell-based, RAS-independent, luminescence, dose response (AID 1933); assay type: functional; conditions: Homo sapiens
cells = assay type: functional, cell-based
[24] = Luminescence Cell-Based Dose Response HTS to Identify Inhibitors of 5'UTR Stem-Loop Driven Prion Protein mRNA Translation in H4 Neuroglioblastoma Cells. [Related pubchem assays: 1827 (Project Summary), 1813 (Primary HTS)]; assay type: functional
[25] = alpha-synuclein stem-loop luciferase translation blockers – H4 neuroglioma cells, luminescence, confirmation (AID 1988); assay type: functional, cell-based
BJ [26] = experiment: cells; assay type: functional, cell-based; conditions: Homo sapiens
[27] = Luminescence Cell-Based Dose Confirmation HTS to Identify Inhibitors of 5'UTR Stem-Loop Driven Alpha-Synuclein mRNA Translation in H4 Neuroglioblastoma Cells. [Related pubchem assays: 1827 (Project Summary), 1813 (Primary HTS)]; assay type: functional
BJ [28] = experiment: BJ-TERT-LT-ST fibroblast viability loss – cell-based, RAS-independent, luminescence, dose response (AID 1935); assay type: functional; conditions: Homo sapiens;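 also: BJ fibroblasts immortalized with TERT plus LT and ST oncogenes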
[29] = DRD fibroblast viability loss – cell-based, non-viral oncogenic, luminescence, dose response (AID 1934); assay type: functional; conditions: Homo sapiens
[30] = alpha-synuclein stem-loop translation blockers – luminescence, H4 neuroglioblastoma cells, dose confirmation, confirmation (AID 2454); assay type: functional, cell-based;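 also: H4 neuroglioblastoma cells carrying an alpha-synuclein 5'UTR luciferase reporter; potency for inhibition of the luciferase signal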
BJ [31] = experiment: growth inhibition of engineered Ras-driven BJ cells – cell-based, alamar blue fluorescence, cherrypicked samples, dose response (AID 2631); assay type: functional; conditions: Homo sapiens;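 also: confirmatory dose-response assay in RAS-dependent BJ fibroblasts engineered with TERT, LT and ST, with cytotoxicity read by fluorescence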
[32] = toxicity toward HEK293 cells – cell-based, dry powder samples, cytotoxicity control, dose response (AID 720567); assay type: functional

T3 sequence (P21554 whole entry): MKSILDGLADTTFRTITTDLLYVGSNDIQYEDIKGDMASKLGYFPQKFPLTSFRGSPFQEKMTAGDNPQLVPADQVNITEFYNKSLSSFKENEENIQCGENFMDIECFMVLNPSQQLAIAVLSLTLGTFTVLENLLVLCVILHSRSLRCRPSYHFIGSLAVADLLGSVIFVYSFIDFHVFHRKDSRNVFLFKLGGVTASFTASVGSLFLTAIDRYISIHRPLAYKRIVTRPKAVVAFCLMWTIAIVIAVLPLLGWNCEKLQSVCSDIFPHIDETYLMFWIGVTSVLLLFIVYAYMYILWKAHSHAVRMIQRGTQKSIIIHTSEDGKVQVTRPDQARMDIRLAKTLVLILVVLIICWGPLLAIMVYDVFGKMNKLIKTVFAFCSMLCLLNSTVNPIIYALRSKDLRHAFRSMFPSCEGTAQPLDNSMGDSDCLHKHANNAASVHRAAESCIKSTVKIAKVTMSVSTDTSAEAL
T2 sequence (Q9HC97 whole entry): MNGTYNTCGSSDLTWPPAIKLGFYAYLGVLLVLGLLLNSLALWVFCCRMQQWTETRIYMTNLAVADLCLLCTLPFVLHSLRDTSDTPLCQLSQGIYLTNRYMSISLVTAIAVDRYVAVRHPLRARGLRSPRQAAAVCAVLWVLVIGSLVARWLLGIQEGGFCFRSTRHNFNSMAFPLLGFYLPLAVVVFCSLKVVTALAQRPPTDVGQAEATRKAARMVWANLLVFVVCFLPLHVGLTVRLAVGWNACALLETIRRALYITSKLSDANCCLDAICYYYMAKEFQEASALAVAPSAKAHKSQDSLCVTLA
T5 sequence (P34972 whole entry): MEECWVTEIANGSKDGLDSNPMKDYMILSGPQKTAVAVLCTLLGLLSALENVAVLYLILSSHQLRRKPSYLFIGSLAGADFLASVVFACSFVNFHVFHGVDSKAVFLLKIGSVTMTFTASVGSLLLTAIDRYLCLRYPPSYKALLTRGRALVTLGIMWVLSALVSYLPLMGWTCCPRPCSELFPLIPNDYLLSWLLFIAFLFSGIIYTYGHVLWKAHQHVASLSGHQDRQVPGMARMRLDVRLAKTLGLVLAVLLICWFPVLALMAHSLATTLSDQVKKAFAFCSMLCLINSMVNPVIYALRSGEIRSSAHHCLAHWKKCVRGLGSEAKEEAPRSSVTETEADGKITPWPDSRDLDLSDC
T4 sequence (Q9Y2T6 whole entry): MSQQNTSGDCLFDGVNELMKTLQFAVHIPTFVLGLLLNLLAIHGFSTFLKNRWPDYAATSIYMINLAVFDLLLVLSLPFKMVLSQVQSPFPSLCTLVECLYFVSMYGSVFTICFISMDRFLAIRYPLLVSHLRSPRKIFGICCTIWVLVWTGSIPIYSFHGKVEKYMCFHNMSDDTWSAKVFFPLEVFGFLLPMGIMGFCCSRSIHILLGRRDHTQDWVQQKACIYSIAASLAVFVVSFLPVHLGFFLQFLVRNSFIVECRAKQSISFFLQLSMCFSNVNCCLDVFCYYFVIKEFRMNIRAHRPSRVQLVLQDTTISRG
Sequence of Ion channel NompC (Q7T1G6 whole entry): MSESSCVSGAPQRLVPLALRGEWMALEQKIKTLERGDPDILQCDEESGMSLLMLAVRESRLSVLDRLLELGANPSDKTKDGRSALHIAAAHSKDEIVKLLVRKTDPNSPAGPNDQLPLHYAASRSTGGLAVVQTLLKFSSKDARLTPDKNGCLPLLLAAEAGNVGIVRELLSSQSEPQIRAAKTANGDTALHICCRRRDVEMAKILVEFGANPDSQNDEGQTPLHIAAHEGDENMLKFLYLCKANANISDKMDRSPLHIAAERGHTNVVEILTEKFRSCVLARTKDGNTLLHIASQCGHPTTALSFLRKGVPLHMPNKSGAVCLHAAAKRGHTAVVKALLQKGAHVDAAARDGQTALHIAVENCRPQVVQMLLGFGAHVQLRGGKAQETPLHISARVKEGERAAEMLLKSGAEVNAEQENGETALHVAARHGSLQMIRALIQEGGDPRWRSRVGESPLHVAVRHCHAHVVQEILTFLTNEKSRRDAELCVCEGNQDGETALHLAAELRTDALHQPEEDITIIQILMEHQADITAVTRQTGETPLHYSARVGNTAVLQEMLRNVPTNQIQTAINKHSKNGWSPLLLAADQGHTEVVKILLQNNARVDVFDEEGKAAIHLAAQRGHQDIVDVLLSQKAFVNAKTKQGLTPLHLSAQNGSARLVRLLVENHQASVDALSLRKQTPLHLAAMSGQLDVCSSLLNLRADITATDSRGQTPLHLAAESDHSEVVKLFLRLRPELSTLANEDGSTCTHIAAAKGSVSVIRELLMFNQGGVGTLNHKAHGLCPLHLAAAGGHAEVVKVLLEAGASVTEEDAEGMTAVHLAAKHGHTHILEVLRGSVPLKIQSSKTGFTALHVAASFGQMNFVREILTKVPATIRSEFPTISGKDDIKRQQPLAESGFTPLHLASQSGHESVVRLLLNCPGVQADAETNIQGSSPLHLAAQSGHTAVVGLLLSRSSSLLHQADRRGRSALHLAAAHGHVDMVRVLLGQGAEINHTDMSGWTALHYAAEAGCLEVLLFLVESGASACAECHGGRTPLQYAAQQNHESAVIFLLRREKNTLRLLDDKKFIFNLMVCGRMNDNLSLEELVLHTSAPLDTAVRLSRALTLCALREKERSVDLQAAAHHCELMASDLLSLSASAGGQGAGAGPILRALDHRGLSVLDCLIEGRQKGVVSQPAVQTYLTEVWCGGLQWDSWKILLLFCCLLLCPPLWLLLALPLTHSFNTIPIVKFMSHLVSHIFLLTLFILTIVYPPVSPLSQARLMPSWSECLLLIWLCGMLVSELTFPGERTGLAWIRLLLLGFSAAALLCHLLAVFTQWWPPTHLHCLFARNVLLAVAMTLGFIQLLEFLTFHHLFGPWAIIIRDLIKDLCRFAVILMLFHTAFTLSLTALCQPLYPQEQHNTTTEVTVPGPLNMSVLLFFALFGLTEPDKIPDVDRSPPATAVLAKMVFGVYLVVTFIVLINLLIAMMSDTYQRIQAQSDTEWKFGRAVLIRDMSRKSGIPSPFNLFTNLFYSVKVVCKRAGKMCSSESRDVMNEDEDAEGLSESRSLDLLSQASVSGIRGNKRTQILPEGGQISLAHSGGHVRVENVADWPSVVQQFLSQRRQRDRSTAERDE
Sequence of Mucolipin-3 (Q8TDD5 whole entry): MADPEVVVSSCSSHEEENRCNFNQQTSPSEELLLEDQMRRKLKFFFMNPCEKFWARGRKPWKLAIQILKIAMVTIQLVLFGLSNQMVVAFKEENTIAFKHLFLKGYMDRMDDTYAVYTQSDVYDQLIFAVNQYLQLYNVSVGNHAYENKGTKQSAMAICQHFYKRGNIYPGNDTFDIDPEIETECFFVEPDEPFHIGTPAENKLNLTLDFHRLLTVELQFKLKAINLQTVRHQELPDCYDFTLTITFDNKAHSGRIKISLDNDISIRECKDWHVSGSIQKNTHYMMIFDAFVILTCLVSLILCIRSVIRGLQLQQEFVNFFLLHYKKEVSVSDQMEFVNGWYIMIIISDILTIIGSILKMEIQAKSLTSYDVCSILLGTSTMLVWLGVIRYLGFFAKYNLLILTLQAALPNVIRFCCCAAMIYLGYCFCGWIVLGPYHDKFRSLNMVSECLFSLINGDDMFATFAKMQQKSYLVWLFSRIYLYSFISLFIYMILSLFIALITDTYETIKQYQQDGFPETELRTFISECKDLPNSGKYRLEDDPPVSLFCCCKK
Sequence of DNA damage-inducible transcript 3 protein (P35639 whole entry): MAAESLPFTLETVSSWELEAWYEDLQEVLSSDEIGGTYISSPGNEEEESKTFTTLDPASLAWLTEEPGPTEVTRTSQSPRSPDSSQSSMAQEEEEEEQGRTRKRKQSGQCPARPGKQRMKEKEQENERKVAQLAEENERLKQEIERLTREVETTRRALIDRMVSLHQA

In the case of `CCOC(=O)c1c(-c2ccccc2)oc2ccc(O)c(CN3CCOCC3)c12`, the “Absolute IC50 (CHOP)” value [1] is reported as 10 µM and the “Absolute IC50 (XBP1)” value (X-box-binding protein 1) is reported as < 10 µM.

In the case of `COC(=O)c1ccc(NC(=O)Nc2cccc(F)c2)cc1`, the EC50 (Ion channel NompC) is reported as > 29.9 µM (inactive) and the EC50 (Mucolipin-3) is reported as > 29.9 µM (not active).

In the case of `COc1ccc(-c2cc(C(=O)Nc3ccc(S(=O)(=O)Nc4ncccn4)cc3)c3ccccc3n2)cc1`, the EC50 [2] is reported as > 32 µM (inactive), the EC50 (Cannabinoid receptor 1 [3]) is reported as > 32 µM (inactive) and the IC50 [4] is reported as > 32 µM (inactive). For the same compound, the IC50 (Cannabinoid receptor 1 [5]) was 24.5 µM (inactive), the IC50 [6] was > 32 µM (inactive) and the IC50 (Cannabinoid receptor 2 [7]) was > 32 µM (inactive). The EC50 (Cannabinoid receptor 2 [8]) was > 32 µM (inactive).

For `CCC1CCc2sc(C(=O)Nc3cc(S(=O)(=O)N4CCOCC4)ccc3OC)cc2C1` (stereo unspecified), the IC50 (Cannabinoid receptor 2 [9]) was > 32 µM (inactive), the EC50 [10] was 409 nM (active) and the EC50 (Cannabinoid receptor 2 [11]) was > 32 µM (inactive). For the same compound, the EC50 [12] was > 32 µM (inactive), the IC50 (Cannabinoid receptor 1 [13]) was > 32 µM (inactive) and the EC50 (Cannabinoid receptor 1 [14]) was > 32 µM (inactive). For the same compound, the IC50 [15] was > 32 µM (inactive).

For `COc1cccc(N2CCN(C(=O)c3ccc(C[S+]([O-])c4ccc(C)cc4)o3)CC2)c1` (stereo unspecified), the EC50 [16] was 703 nM (active), the EC50 [17] was 703 nM (inconclusive) and the EC50 [18] was 5.76 µM (active). For the same compound, the EC50 [19] was 930 nM (active), the EC50 [20] was 36.4 µM (inconclusive) and the EC50 [21] was 186 nM (inconclusive). The EC50 [22] was 186 nM (active), the EC50 (BJ [23]) was 873 nM (active) and the EC50 (cells) was 1.57 µM (active). For the same compound, the EC50 [24] was 12.6 µM (active), the EC50 [25] was < 100 nM (active) and the EC50 (BJ [26]) was 479 nM (inconclusive). For the same compound, the EC50 [27] was 36.4 µM (active), the EC50 (BJ [28]) was 651 nM (active) and the EC50 [29] was 637 nM (active). The EC50 [30] was 1.43 µM (active), the EC50 (BJ [31]) was < 104 nM (active) and the AC50 [32] was > 30 µM (inactive).
